| melting point [°C] | Structure (SMILES) |
| --- | --- |
| 109 to 111 | CCCc1cccc2sc(Sc3ccc4c(c3)CC[C@H]3N(C)C(=O)CC[C@]43C)nc12 |
| 89 to 91 | O=C1c2ccccc2C(=O)N1CCNOCc1ccccc1 |
| 146 | COC1=CC(OC)(OC)C(I)C=C1C(=O)OCC(=O)c1ccccc1 (stereo unspecified) |
| 227 to 229 | CCNC(=O)CC1CN=C(c2cc3cc(Oc4ccc(S(C)(=O)=O)nc4)cc(CC)c3[nH]2)S1 (stereo unspecified) |
| 119 to 121 | CN(C)C(=O)C(=O)C1=CC2(CCCC2)c2ccccc21 |
| 277 to 278 | O=C(O)c1ccc(NC(=O)C(F)(F)F)cc1 |
| 277 to 279 | CCOC(=O)N1CCN(c2nc3c(cc2F)c(=O)c(C(=O)O)cn3C2CC2)CC1 |
| 79 to 81 | N#Cc1ccc(OCCc2cccc(F)c2)cc1 |
| 90.5 to 91.5 | C=CCc1c(C)nc2c(OCc3ccccc3)cccn12 |
| 262 to 265 | Cc1nnc2n1-c1ccc(Cl)cc1C(c1ccccc1)N2 (stereo unspecified) |
| 244 to 247 | CCOC(=O)c1c[nH]c2c(OC)csc2c1=O |
| 37 to 40 | COc1nc(OC)nc(OC(C(=O)O)C(C)(C)C)n1 (stereo unspecified) |
| 118 to 120 | Cc1noc(CC(=O)Nc2ccccc2Cl)n1 |
| 110 to 112 | C=C(C)CN(c1ncnc2c1ncn2C1OC(CO)C(O)C1O)C1CCCCC1 (stereo unspecified) |
| 161 to 170 | O=C1c2c(cc(O)c(Cl)c2Cl)CC1(c1ccccc1)C1CCCC1 (stereo unspecified) |
| 123 to 124 | CCOC(=O)/C=C/c1cc(-c2ccccc2)nn1Cc1ccc(Cl)cc1Cl |
| 198 to 199 | COc1ccc(C2=NN(c3ccc(C(=O)O)cc3)C(=O)[C@H]3CC=CC[C@@H]23)cc1OC (relative stereo) |
| 168 to 169 | CCc1nc2cnc3ccc(OCc4ccccc4)cc3c2n1C |
| 91 | CCCCCOC(=O)CCNCC(O)COc1ccccc1C#N (stereo unspecified) |

| melting point [°C] | Structure (SMILES) |
| --- | --- |
| 62 to 63 | CCOC(=O)c1cc2cccc([N+](=O)[O-])c2n1COC |
| 250 to 252 | O=C1c2[nH]c3cc(O)ccc3c2CC1CC1CCN(Cc2ccccc2)CC1 (stereo unspecified) |
| 78 to 80 | COC(=O)C(=CN(C)C)C(=O)C=Cc1ccc(Cl)cc1 |
| 179 to 180 | O=C(O)c1ccc(OCCCCCCc2cccc(O)c2O)cc1O |
| 131 | COc1ccccc1-c1ccc(C[C@H](NC(=O)c2c(Cl)cccc2Cl)C(=O)O)cc1Cl |
| 133 to 134 | CCOC(=O)c1cc2cc(SC(=O)N(C)C)ccc2oc1=O |
| 148 to 149 | CCCCOc1c(NCc2ccc(C#N)cc2Cl)c(=O)c1=O |
| 147 to 149 | O=c1[nH]nc2c3c(cccc13)N=C(CN1CCCNCC1)N2 |
| 240 to 241 | NC(=O)c1cccnc1Nc1cccc([N+](=O)[O-])c1 |
| 88 to 90 | COC(=O)[C@@H](NC(=O)Nc1n[nH]c(=S)s1)[C@@H](C)OCc1ccccc1 |
| 270 | CC1(C)CC(Nc2nc(Cl)nc(NC3CC(C)(C)NC(C)(C)C3)n2)CC(C)(C)N1 |
| 204 to 205 | ON=C1CCC(C2CCCC2)=C1c1ccc(F)cc1 |
| 227 | O=C(c1ccc([N+](=O)[O-])cc1)c1ccc2[nH]c(=O)cc(-c3cccc(Cl)c3)c2c1 |
| 221 | COc1ccc(C(=O)Nc2ccc3ccc(Br)nc3n2)cc1 |
| 152 to 154 | COc1ccccc1N1CCN(CC(O)COc2ccc3cc(C(N)=O)oc3c2)CC1 (stereo unspecified) |
| 116 | CC(C)(N=NC(C)(C)C(=O)NC1CCCCC1)C(=O)NC1CCCCC1 |
| 176 to 178 | C=C(C)C(=O)NC1(C(=O)O)CCCCC1 |
| 85 to 87 | CCC(CC)(CC)n1ncc(C(=O)NC)c1C#N |
| 167 to 170 | CCN1CCc2ccc(Nc3ncc(C(F)(F)F)c(Nc4ccc(N5CCOCC5)cc4OC)n3)cc2CC1 |

| Structure (SMILES) | melting point [°C] |
| --- | --- |
| OC1CC2(CCNC2)c2ccccc21 (stereo unspecified) | 155 to 158 |
| OCC(CO)n1nnnc1S | 138 |
| CN1C(=O)[C@H](NC(=O)C=Cc2ccc(Cl)cc2)N=C(c2ccccc2)c2ccccc21 | 203 to 205 |

Source: a melting point compilation (Tetko et al.; mined from patent text by program, amines drawn as free bases though some values may be those of a salt)
